Assay results reported in patent US20100234439A1, “THERAPEUTIC AGENTS” (priority 2006, published 2010).

Target: T1, CB1 receptor (Homo sapiens, UniProt P21554)
T1 construct: expressed in transfected cells; membranes prepared from them
Experiment: [35S]-GTPγS binding assay, membranes from cells stably transfected with the CB1 gene, inhibition of CP55940 (EC80) stimulated activity
Type: biochemical
Conditions: concentration giving half maximal inhibition of GTPγS binding; EC80 concentration of agonist CP55940; 30° C., 45 min
Method: The compound of the present invention is active against the receptor product of the CB1 gene. The affinity of the compound of the invention for central cannabinoid receptors is demonstrable in methods described in Devane et al, Molecular Pharmacology, 1988, 34,605 or those described in WO01/70700 or EP 656354. Alternatively the assay may be performed as follows.
10 μg of membranes prepared from cells stably transfected with the CB1 gene were suspended in 200 μl of 100 mM NaCl, 5 mM MgCl2, 1 mM EDTA, 50 mM HEPES (pH 7.4), 1 mM DTT, 0.1% BSA and 100 μM GDP. To this was added an EC80 concentration of agonist (CP55940), the required concentration of test compound and 0.1 μCi [^35S]-GTPγS.
The reaction was allowed to proceed at 30° C. for 45 min. […] Filters were then covered with scintilant and counted for the amount of [^35S]-GTPγS retained by the filter.
Activity is measured in the absence of all ligands (minimum activity) or in the presence of an EC80 concentration of CP55940 (maximum activity). […] At various concentrations of novel ligand, activity is calculated as a percentage of the maximum activity and plotted. The data are fitted using the equation y=A+((B−A)/1+((C/x)ÙD)) and the IC50 value determined as the concentration required to give half maximal inhibition of GTPγS binding under the conditions used.

T1 sequence (P21554 whole entry): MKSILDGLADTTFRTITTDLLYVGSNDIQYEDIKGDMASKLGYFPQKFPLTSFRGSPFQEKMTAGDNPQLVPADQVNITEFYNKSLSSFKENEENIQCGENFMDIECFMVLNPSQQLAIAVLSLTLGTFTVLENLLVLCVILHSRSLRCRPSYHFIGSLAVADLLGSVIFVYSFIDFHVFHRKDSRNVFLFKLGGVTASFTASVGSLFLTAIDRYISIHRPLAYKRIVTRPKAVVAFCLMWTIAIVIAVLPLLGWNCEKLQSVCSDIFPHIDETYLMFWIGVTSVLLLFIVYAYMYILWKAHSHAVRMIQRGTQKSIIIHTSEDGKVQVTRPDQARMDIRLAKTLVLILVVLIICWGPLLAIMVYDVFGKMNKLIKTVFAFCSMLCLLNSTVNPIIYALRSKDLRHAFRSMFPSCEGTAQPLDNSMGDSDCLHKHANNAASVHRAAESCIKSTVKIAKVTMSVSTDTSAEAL

**Q.** Which IC50 does the source give for `O=C(N[C@@H]1CCCC[C@@H]1O)c1nn(-c2ccc(Cl)cc2Cl)c(-c2ccc(OS(=O)(=O)CCC(F)(F)F)cc2)c1CO` (single isomer, unassigned) [Example 1, (+)3,3,3-Trifluoro-propane-1-sulfonic acid 4-[2-(2,4-dichloro-phenyl)-5-(2-hydroxy-cyclohexylcarbamoyl)-4-hydroxymethyl-2H-pyrazol-3-yl]-phenyl ester] here?
**A.** 1 nM
